Assay results published in US9359451B2, “Methods and compositions for treating trauma-hemorrhage using estrogen and derivatives thereof” (THE UAB RESEARCH FOUNDATION, priority 2012, dated 2016).
Entries after “also recorded” stand apart in the source; their conditions may differ.

Legend:
[1] = system: TNF-α, IL-1β, IL-6 and MCP-1 mRNA; test: Spinal cord injury: quantitative real time PCR of cytokines and chemokines; type: in vivo, mouse; settings: 24 h after SCI; ICI 182,780: co-administered with 17β-estradiol
Experimental: (§1) Mice were anaesthetized using chloral hydrate (400 mg/kg body weight) (Genovese 2006). A longitudinal incision was made on the midline of the back, exposing the paravertebral muscles. These muscles were dissected away exposing T5-T8 vertebrae. The spinal cord was exposed via a four-level T6-T7 laminectomy and SCI was produced by extradural compression using an aneurysm clip with a closing force of 24 g. Following surgery, 1 ml of saline was administered subcutaneously in order to replace the blood volume lost during surgery. During the surgery and recovery from anesthesia, the mice were placed on a warm heating pad and covered with a warm towel. The mice were singly housed in a temperature-controlled room at 27° C. and survival was measured over a period of 10 days. Food and water were provided to the mice ad libitum. During this time period, the animals' bladders were manually voided twice a day until the mice were able to regain normal bladder function. In all injured groups, the spinal cord was compressed for 1 min. Sham-injured animals were only subjected to laminectomy.
In the experiments regarding the motor score, the animals from all the experimental groups were observed and treated daily for 9 days after SCI. At different time points (see FIG. 30), the mice (n=10 from each group for each of the 3 time points) were sacrificed in order to evaluate the various parameters as described below.
A segment of spinal cord (320±124 mg) encompassing lesion epicentre was homogenized in a solution of Tri-reagent (Sigma®, Germany) according to the manufacturer's instructions. Total cellular RNA was isolated from the aqueous phase then the levels of […], TNF-α, MCP-1, IL-6 gene products were determined by Real Time PCR. The amount of each PCR product of gene target was normalized to Glyceraldehyde-3-phosphate dehydrogenase (GAPDH). The RNA extracted from spinal cord of individual mice was reverse transcripted into first strand cDNA with Random Hexamers and purified Avian Myeloblastosis Virus Reverse Transcriptase (Takara, Japan) in […] of reaction after a DNAse treatment and stored at −80° C. until use. Primers pair for each cytokine was designed using the software Oligo (Molecular Biology Insights, Cascade, Colo., USA). The PCR reactions were performed using the following cycle conditions: a denaturation step for 15 minutes at 95° C. and 40 cycles of 30 seconds denaturation at 94° C., 30 seconds annealing (TNF-á 61° C., IL-6 54° C., IL-1β 61° C., MCP-1 54° C., GADPH 56° C.), 15 sec at 72° C. and 7 minutes of final extension at 72° C. The PCR products were visualized by electrophoresis on agarose gel 2% stained by ethidium bromide. The purified PCR products were cloned into a plasmid vector, transformed into the E. coli TOP 10 (Invitrogen) and purified with Turbo Kit (QBIOgene, CA, USA). The recombinant plasmid was linearized upstream the target sequence using the restriction endonuclease PmeI (Fermentas, Canada). Tenfold dilutions of recombinant plasmid from 10^9 copies down to 10^1 copies were used as standards. The real time PCR assay was developed and evaluated on the Rotor-Gene 3000 system (Corbett Research, Australia). Reaction was carried out in a final volume of 25 μl containing 1× of SYBR PREMIX Ex Taq Takara, 200 nM each forward and reverse primers, 1× of Rox References Dye and 2 μl of cDNA. Cycling parameters were the following: 10 minutes at 95° C. for polymerase activation followed by 40 cycles of 15 seconds at 95° C., 15 seconds annealing (TNF-α 61° C., […], IL-6 54° C., IL-1β 61° C., MCP-1 54° C., GADPH 56° C.) 20 sec at 72° C. The signal was acquired on the FAM channel (multichannel machine) (source, 470 nm; detector, 510 nm; gain set to 5) with the fluorescence reading taken at the end of each 72° C. step. A melt step was added after a cycling run performed with the same parameters of the SYBR Green assay. […]

[2] = system: hind limb motor function; test: Spinal cord injury: grading of motor disturbance (modified BBB scale); type: in vivo, mouse; settings: every day for 10 days after SCI; pre or post treatment with 17β-estradiol; ICI 182,780: co-administered with 17β-estradiol
Experimental: as §1, with “The mice were singly housed in a temperature-controlled room at 27° C. and survival was measured over a period of 10 days.” left out, “laminectomy. […] In the experiments regarding the motor score, the animals from all the experimental groups were observed and treated daily for 9 days after SCI. At different time points (see FIG. 30), the mice (n=10 from each group for each of the 3 time points) were sacrificed in order to evaluate the various parameters as described below. […] The motor function of mice subjected to compression trauma was assessed once a day for 10 days after injury. […]” for “laminectomy.”

Compound | IL-1β mRNA levels in spinal cord [1] | IL-6 mRNA levels in spinal cord [1] | MCP-1 mRNA levels in spinal cord [1] | TNF-α mRNA levels in spinal cord [1] | hind limb motor disturbance (BBB score) [2]
C[C@]12CC[C@@H]3c4ccc(O)cc4CC[C@H]3[C@@H]1CC[C@@H]2O [17β-estradiol] | significantly reduced | significantly reduced | significantly reduced | significantly reduced | significant amelioration of hind limb motor disturbances; also recorded: reduces the motor disturbance after SCI
C[C@]12CC[C@@H]3c4ccc(O)cc4C[C@@H](CCCCCCCCC[S+]([O-])CCCC(F)(F)C(F)(F)F)[C@H]3[C@@H]1CC[C@@H]2O (stereo partly shown) [ICI 182,780] | significantly blocked the effect of the 17β-estradiol | significantly blocked the effect of the 17β-estradiol | significantly blocked the effect of the 17β-estradiol | significantly blocked the effect of the 17β-estradiol | significantly blocked the effect of the 17β-estradiol
